{
  "source": "paper PMC4117522",
  "about": "“Proteasome Inhibitors Alter Levels of Intracellular Peptides in HEK293T and SH-SY5Y Cells” (PLoS ONE, 2014)",
  "tested_on": "HEK293T cells",
  "assay": "Quantitative peptidomics (TMAB isotopic labels, LC-MS/MS) of inhibitor-treated HEK293T cells",
  "format": "cell-based, human",
  "method": "HEK293T and SH-SY5Y cells were grown to 80–90% confluence in DMEM and RPMI supplemented with 10% fetal bovine serum and penicillin/streptomycin. A single plate of cells (150 mm×25 mm) was used for each group. At the start of the experiment, media were removed from the plates and cells were washed with DPBS (138 mM NaCl, 8.06 mM Na2HPO4, 2.67 mM KCl, 1.47 mM KH2PO4, 0.9 mM CaCl2 and 0.49 mM MgCl2). This was followed by addition of serum-free media containing the proteasome or aminopeptidase inhibitors, or 0.05% DMSO as a control for the inhibitors that were soluble in DMSO. Each experiment consisted of two control groups and two or three replicate groups of cells treated with one of the inhibitors. The cells were incubated at 37°C for 20 minutes, following which media containing the inhibitor was removed, cells were washed with DPBS, detached from the plate by scraping into DPBS (without trypsin), and centrifuged at 800×g for 5 min. The wash buffer was supplemented with the appropriate inhibitor at the same concentration as used for the treatment, thereby ensuring that the changes induced in peptide levels were not reversed during harvesting of cells due to possible dissociation of the reversible inhibitors. The wash time (including centrifugation) was 15 minutes, for a total treatment time of 35 minutes. After centrifugation, the cell pellet was resuspended in 1 ml of 80°C water and incubated in an 80°C water bath for 20 minutes to inactivate proteases. The mixture was again centrifuged (13,000×g, 30 min, 4°C) and was stored at −80°C overnight. For peptide extraction, the samples were thawed and centrifuged again. The lysate was subsequently cooled on ice and acidified with HCl to a final concentration of 10 mM. After 15 min incubation on ice, the lysate was centrifuged at 13,000×g for 30 min at 4°C. To the supernatant, 250 µL of dibasic sodium phosphate (0.4 M, pH 9.5) was added and the mixture was stored at −80°C until labeling.\nThe labeling protocol has been earlier described in detail. Each group within an experiment (control/treated) was labeled with a different isotopic tag. The TMAB-NHS labels were dissolved in DMSO to a concentration of 400 µg/µL and 15 mg of label was used per 150 mm plate of cells. […] At the beginning, the pH of the peptide extract was adjusted to 9.5 with 1 M NaOH. Labeling was performed over 8 rounds; 4.69 µL of the label was added to the extract every 20 min. The pH was measured between each round and if necessary, brought back to 9.5 for the first five rounds. For rounds 6–8, the pH was not adjusted after the addition of the TMAB-NHS reagent. After the final round of label addition, the pH was adjusted to 9.5 again and the extracts were incubated at room temperature for 90 min. Thereafter, 30 µL of 2.5 M glycine was added to quench any unreacted label. Following 40 min incubation at room temperature, the labeled extracts for a single experiment were pooled and filtered through Amicon Ultracel-10 K units. It is important to ensure that only N-terminal amines and lysine side-chain amines of peptides are TMAB-labeled and not tyrosines. To hydrolyze any labeled tyrosine, 30 µL of a 2 M solution of hydroxylamine hydrochloride (pH 3.7) was added over three rounds to the pooled and filtered sample. The pH was measured after the addition of hydroxylamine and adjusted to 9.0 with 1 M NaOH. The samples were desalted through PepClean C-18 spin columns (Thermo Scientific, Rockford, IL, USA) by following manufacturer’s instructions. Peptides were eluted using 160 µL of 0.5% TFA and 70% acetonitrile, frozen at −80°C and then lyophilized in a vacuum centrifuge and stored at −80°C until analysis by mass spectrometry.\nThe LC-MS/MS experiments were performed on a Synapt G2 mass spectrometer coupled to a NanoAcquity capillary liquid chromatography system (Waters Co., Milford, MA, USA).",
  "note": "“And” between values parts separate entries of the source, which are not always exact repeats. Equal entries are not always repeated.",
  "data": [
    {"smiles": "CN1C/C(=C/c2ccc(B(O)O)cc2)C(=O)/C(=C\\c2ccc(B(O)O)cc2)C1", "note": "[AM114, reference compound]", "values": [
      {"measurement": "Relative Levels of peptide ADKVPKTAENFRAL (PPIA)", "setting": "1 uM, 35', HEK", "value": "1.29 and 0.68 and 0.72"},
      {"measurement": "Relative Levels of peptide AGAAVDELGKVLTPTQV (PEBP1)", "setting": "1 uM, 35', HEK", "value": "1.53 and 0.85"},
      {"measurement": "Relative Levels of peptide AKADGIVSKNF (RPS21)", "setting": "1 uM, 35', HEK", "value": "0.95 and 0.82 and 0.98"},
      {"measurement": "Relative Levels of peptide APIKVGDAIPAVEVF (PRDX5)", "setting": "1 uM, 35', HEK", "value": "1.44 and 0.88"},
      {"measurement": "Relative Levels of peptide APPTAYIDFARQK (TPI1)", "setting": "1 uM, 35', HEK", "value": "1.67 and 1.17"},
      {"measurement": "Relative Levels of peptide ASQPDVDGFLVGGASLKPEFVDIINAKQ (TPI1)", "setting": "1 uM, 35', HEK", "value": "0.84 and 1.26 and 1.47"},
      {"measurement": "Relative Levels of peptide AVDGEPLGRVSF (PPIA)", "setting": "1 uM, 35', HEK", "value": "1.20 and 0.93 and 0.87"},
      {"measurement": "Relative Levels of peptide Ac-AAPVDLELKKAFTEL (PFDN1)", "setting": "1 uM, 35', HEK", "value": "1.09 and 0.91 and 0.97"},
      {"measurement": "Relative Levels of peptide Ac-AEEGIAAGGVMDVNTALQEVLKT (RPS12)", "setting": "1 uM, 35', HEK", "value": "0.90 and 1.10"},
      {"measurement": "Relative Levels of peptide Ac-ANLERTFIAIKPDGV (NME2)", "setting": "1 uM, 35', HEK", "value": "1.00 and 1.33"},
      {"measurement": "Relative Levels of peptide Ac-ASKRALVIL (PARK7)", "setting": "1 uM, 35', HEK", "value": 1.00},
      {"measurement": "Relative Levels of peptide Ac-ASKRALVILA (PARK7)", "setting": "1 uM, 35', HEK", "value": "0.86 and 1.00"},
      {"measurement": "Relative Levels of peptide Ac-MDTSRVQPIKL (RPS28)", "setting": "1 uM, 35', HEK", "value": "0.94 and 1.00"},
      {"measurement": "Relative Levels of peptide Ac-MDTSRVQPIKLAR (RPS28)", "setting": "1 uM, 35', HEK", "value": "1.18 and 1.12 and 1.00"},
      {"measurement": "Relative Levels of peptide Ac-MDTSRVQPIKLARVTKV (RPS28)", "setting": "1 uM, 35', HEK", "value": "1.29 and 1.14"},
      {"measurement": "Relative Levels of peptide Ac-SSEEGKLFVGGLNF (RBM3)", "setting": "1 uM, 35', HEK", "value": "0.90 and 1.03"},
      {"measurement": "Relative Levels of peptide Ac-SYGRPPPDVEGMTSLKVDNL (SRSF2)", "setting": "1 uM, 35', HEK", "value": "0.91 and 1.06 and 1.09"},
      {"measurement": "Relative Levels of peptide Ac-[…] (COX6B1)", "setting": "1 uM, 35', HEK", "value": "1.03 and 0.97"},
      {"measurement": "Relative Levels of peptide GESDDSILRLAKADGIVSKNF (RPS21)", "setting": "1 uM, 35', HEK", "value": "1.09 and 0.90 and 0.85"},
      {"measurement": "Relative Levels of peptide GFGDLKSPAGLQVL (EEF1B2)", "setting": "1 uM, 35', HEK", "value": "1.74 and 1.18"},
      {"measurement": "Relative Levels of peptide GISTPEELGLDKV (COX5A)", "setting": "1 uM, 35', HEK", "value": "1.60 and 1.00"},
      {"measurement": "Relative Levels of peptide KHTGPGILSM (PPIA)", "setting": "1 uM, 35', HEK", "value": "1.13 and 1.00 and 0.92"},
      {"measurement": "Relative Levels of peptide PGIVELPTLEEL (NDUFA8)", "setting": "1 uM, 35', HEK", "value": "1.07 and 0.80 and 0.67"},
      {"measurement": "Relative Levels of peptide SLGELIGTLNA (TPI1)", "setting": "1 uM, 35', HEK", "value": "1.06 and 0.59 and 0.88"},
      {"measurement": "Relative Levels of peptide VNPTVFFDI (PPIA)", "setting": "1 uM, 35', HEK", "value": "1.20 and 0.67 and 0.80"},
      {"measurement": "change in levels of intracellular peptides (peptidome)", "setting": "HEK293T cells, 35 min, 2.5 µM MG132, 1 µM other inhibitors", "value": "did not produce a substantial change in levels of peptides"}
    ]}
  ]
}
